Results taken from US9867377B2, “Composition comprising a biological control agent and an insecticide” (Bayer CropScience AG, priority 2012, dated 2018).

Experiments:
Format in all cases: in vivo
[1] = test system: two spotted spidermite (Tetranychus urticae); test: Tetranychus urticae - spray test, OP-resistant; conditions: mortality, infested French beans sprayed
Protocol: (§1) Formula for the efficacy of the combination of two compounds • The expected efficacy of a given combination of two compounds is calculated as follows (see Colby, S. R., “Calculating Synergistic and antagonistic Responses of Herbicide Combinations”, Weeds 15, pp. 20-22, 1967): • If • X is the efficacy expressed in % mortality of the untreated control for test compound A at a concentration of m ppm respectively m g/ha, • Y is the efficacy expressed in % mortality of the untreated control for test compound B at a concentration of n ppm respectively n g/ha, • E is the efficacy expressed in % mortality of the untreated control using the mixture of A and B at m and n ppm respectively m and n g/ha, • then is
(§2) [formula] • If the observed insecticidal efficacy of the combination is higher than the one calculated as, “E”, then the combination of the two compounds is more than additive, i.e., there is a synergistic effect.
Tetranychus urticae—Spray Test, OP-Resistant
(§3) Solvent: 78.0 parts by weight acetone • 1.5 parts by weight dimethylformamide
(§4) Emulsifier: alkylaryl polyglycol ether
(§5) To produce a suitable preparation of active compound, 1 part by weight of active compound is mixed with the stated amount of solvents and is diluted with water, containing an emulsifier concentration of 1000 ppm, to the desired concentration. To produce a suitable preparation of a spore suspension the spores are diluted with emulsifier containing water to the desired concentration. Further test concentrations are prepared by dilution with emulsifier containing water.
French beans (Phaseolus vulgaris) which are heavily infested with all stages of the two spotted spidermite (Tetranychus urticae), are sprayed with a preparation of the active ingredient of the desired concentration.
After the specified period of time, mortality in % is determined. 100% means all spider mites have been killed and 0% means none of the spider mites have been killed. The mortality values determined thus are recalculated using the Colby-formula (see sheet 1).

[2] = test system: green peach aphid (Myzus persicae); test: Myzus persicae - spray test; conditions: mortality, infested Chinese cabbage leaf disks sprayed; for Efficacy in % after 6 d: 0.4 g ai/ha
Protocol: as §1, §2
Myzus persicae—Spray Test
as §3, §4, §5
Chinese cabbage (Brassica pekinensis) leaf-disks infected with all instars of the green peach aphid (Myzus persicae) are sprayed with a preparation of the active ingredient of the desired concentration.
After the specified period of time, mortality in % is determined. 100% means all aphids have been killed; 0% means none of the aphids have been killed. The mortality values determined thus are recalculated using the Colby-formula (see sheet 1).

[3] = test system: mustard beetle larvae (Phaedon cochleariae); test: Phaedon cochleariae - spray test; conditions: mortality, Chinese cabbage leaf disks sprayed
Protocol: as §1, §2
Phaedon cochleariae—Spray Test
Solvent: 78.0 parts by weight of acetone • • 1.5 parts by weight of dimethylformamide
Emulsifier: alkylaryl polyglycol ether […]
After the specified period of time, mortality in % is determined. […] The mortality values determined thus are recalculated using the Colby-formula (see sheet 1).

Cc1cc(F)c(-n2nc(C(F)(F)F)nc2N)cc1[S+]([O-])CC(F)(F)F (stereo not shown) [AMSI 378, 1-{2-fluoro-4-methyl-5-[(2,2,2-trifluorethyl)sulfinyl]phenyl}-3-(trifluoromethyl)-1H-1,2,4-triazol-5-amine]
Efficacy in % after 2 d ([1]; 4 g ai/ha): 30%
Efficacy in % after 6 d ([1]; 4 g ai/ha): 0%

CNC(=O)c1cc(C#N)cc(C)c1NC(=O)c1cc(Cn2nnc(C(F)(F)F)n2)nn1-c1ncccc1Cl [BCS-CL73507]
Efficacy in % after 6 d [2]: 0%
Efficacy in % after 6 d ([3]; 0.08 g ai/ha): 0%

O=C(NCCc1ncc(C(F)(F)F)cc1Cl)c1ccccc1C(F)(F)F [Fluopyram]
Efficacy in % after 1 d ([2]; 1000 g ai/ha): 0%
Efficacy in % after 6 d ([3]; 100 g ai/ha): 0%

O=C1C=C(N(Cc2ccc(Cl)nc2)CC(F)F)CO1 [Flupyradifurone]
Efficacy in % after 1 d ([2]; 20 g ai/ha): 0%
Efficacy in % after 6 d ([1]; 250 g ai/ha): 0%

Cc1cc(C)c(C2=C(OC(=O)CC(C)(C)C)C3(CCCC3)OC2=O)c(C)c1 [Spiromesifen]
Efficacy in % after 6 d ([1]; 0.5 g ai/ha): 0%

CCOC(=O)OC1=C(c2cc(C)ccc2C)C(=O)N[C@]12CC[C@@H](OC)CC2 [Spirotetramat]
Efficacy in % after 6 d [2]: 0%
